Data on one molecule can be found in EP0994713B1, “USE OF A 7alpha-METHYL-17alpha-ETHYNYL-ESTRANE DERIVATIVE FOR THE TREATMENT OF ATHEROSCLEROSIS” (Akzo Nobel N.V., priority 1997, dated 1998).

The test system of assay [1] is female ovariectomized rabbits. Nature of the assay: Uterus weight (estrogenic activity), cholesterol fed rabbit model. The assay is classed as in vivo, New Zealand White rabbits. As to conditions: for Uterus weight per 100 grams body weight: cholesterol diet, OVX, necropsy at 20 weeks. The procedure: (§1) The model is considered relevant to the human atherosclerotic process, because the cellular events occurring during the development of the atherosclerotic lesions during the atherogenic diet are similar to those observed in different stages of atherosclerotic processes in coronary arteries.
An experiment was performed with 7 groups of sexually mature, virgin female New Zealand White rabbits (Harlan, Zeist, The Netherlands), age 7-9 months and weighing approximately 3 kg (number of […] per group: 13-14). During the acclimatization period the rabbits were fed a diet of standard commercial rabbit chow LKK20 (Hope Farms, Woerden, The Netherlands). Three weeks prior to the start of the experiment the animals were anaesthetized and underwent bilateral ovariectomy (OVX) or were sham operated. After three weeks, at the start of the experiment, the rabbits were randomized over the treatment groups. In all animals de-endothelialisation of a segment of the left carotid artery was applied by using the air-drying technique (Fishman, J.A. et al., "Endothelial regeneration in the rat carotid artery and the significance of endothelial denudation in the pathogenesis of myointimal thickening", Lab. Invest. 1975, 32, 339-351; and Lafont, A. et al., "Restenosis and experimental angioplasty: Intimal, medial and adventitial changes associated with constructive remodeling", Circulation Research, 1995, 76, 996-1002)
The animals were randomly allocated into 7 experimental groups using a randomized block design. The groups were fed an atherogenic diet (commercial rabbit chow (LKK20) enriched with 0.4 grams cholesterol, 3.75 grams coconut oil and 3.75 grams peanut oil per 100 grams). One group was fed the standard rabbit chow (LKK20). Food intake was restricted to 80 grams daily.
The treatments (Table I) were daily administered orally as a tablet, prepared as in Example 1. Groups 1, 2 and 3 were on a daily placebo treatment. Groups 4-5 were treated with 7α-methyl-17α-ethynyl-17β-hydroxy-estra-5(10)-en-3-one (OD-14; tibolone; 6 or 2 mg daily); group 6 with 17β-estradiol (4 mg daily). Group 7 was on treatment with 17β-estradiol decanoate (150 µg in 1 ml arachis oil injected subcutaneously once a week).
(§2) During the experiment blood samples were drawn out of the central ear artery after sedation with Hypnorm (0.1 ml i.m.) (Janssen Pharmaceutics, Beerse, Belgium) before the daily treatment, at week 4,8,12,16 and 20, to monitor the plasma cholesterol levels and to measure, at week 17, plasma estradiol levels and plasma tibolone levels. Twenty weeks after the start of the experiment animals were anaesthetized by an i.m. injection of Hypnorm (0.5 ml/kg). After blood sampling the rabbits were killed by exsanguination and the aortic arch, uterus and carotid artery removed for further analyses.
In addition to example 2 an additional experiment was performed with two lower doses of Org OD14 and a higher dose of estradiol decanoate. […] The procedures were identical to those in example 2.
(§3) Three weeks prior to the start of the experiment the animals were ovariectomized. At the start of the experiment the carotid artery was de-endothelialised using the air-drying technique. The normal rabbit chow was replaced by the atherogenic diet except for the control group which received during the experiment the normal rabbit chow.
The treatments (table II) of group 1, 2, 3 and 4 were daily administered orally as a tablet, prepared as in example 1. The doses of Org OD14 per tablet, however, were 0.6 mg and 0.15 mg respectively. Group 5 was on treatment with 17β-estradiol decanoate (300 µg in 1 ml arachis oil injected subcutaneously once a week). Twenty weeks after the start of the experiment was ended in the same manner as described in example 2.
After 20 weeks of diet and of daily treatment, necropsy was performed to determine the accumulation of cholesterol and fatty streaks in the aortic arch and the advanced lesions in the carotid artery. […]

Assay [2] deals with female ovariectomized rabbits. As to the kind of experiment: Vessel wall cholesterol measurement in the aortic arch. As to conditions: for Cholesterol level in aortic arch: cholesterol diet, OVX, necropsy at 20 weeks. The assay is classed as in vivo, New Zealand White rabbits. As to the method:
as §1
An experiment was performed with 7 groups of sexually mature, virgin female New Zealand White rabbits (Harlan, Zeist, The Netherlands), age 7-9 months and weighing approximately 3 kg (number of […] per group: 13-14). During the acclimatization period the rabbits were fed a diet of standard commercial rabbit chow LKK20 (Hope Farms, Woerden, The Netherlands). Three weeks prior to the start of the experiment the animals were anaesthetized and underwent bilateral ovariectomy (OVX) or were sham operated. After three weeks, at the start of the experiment, the rabbits were randomized over the treatment groups.
The animals were randomly allocated into 7 experimental groups using a randomized block design. […] One group was fed the standard rabbit chow (LKK20). Food intake was restricted to 80 grams daily.
Groups 1, 2 and 3 were on a daily placebo treatment. Groups 4-5 were treated with 7α-methyl-17α-ethynyl-17β-hydroxy-estra-5(10)-en-3-one (OD-14; tibolone; 6 or 2 mg daily); group 6 with 17β-estradiol (4 mg daily). Group 7 was on treatment with 17β-estradiol decanoate (150 µg in 1 ml arachis oil injected subcutaneously once a week).
as §2, §3
Group 5 was on treatment with 17β-estradiol decanoate (300 µg in 1 ml arachis oil injected subcutaneously once a week).
The amount of protein in the tissue was determined by the method of Lowry.

[3] abbreviates: Example 2, Group 4: 6 mg orally daily.
Where [4] appears, read: Example 2, Group 5: 2 mg orally daily.
Setting [5] is: Example 3: 0.15 mg orally once daily.
The mark [6] stands for this setting: Example 3: 0.6 mg orally once daily.

Molecules are shown by their SMILES.

Take `C#C[C@]1(O)CC[C@H]2[C@@H]3[C@H](C)CC4=C(CCC(=O)C4)[C@H]3CC[C@@]21C` [Org OD14, 7α-methyl-17α-ethynyl-17β-hydroxy-estra-5(10)-en-3-one]: the “Uterus weight per 100 grams body weight” value in assay [1] (setting [3]) stood at 0.24 ±0.06 per 100 grams body weight; in assay [1] (setting [4]) it was 0.29 ±0.03 per 100 grams body weight; in assay [1] (setting [5]), 0.132 ±0.013 per 100 grams body weight; in assay [1] (setting [6]) it was 0.224 ±0.016 per 100 grams body weight. The “uterus weight increase (estrogenic activity, in words)” value in assay [1] (Example 2: Org OD14 2 and 6 mg per day) is on record as “to a similar extent as both estradiol treatments”. For the same molecule, the “increase of uterus weight” value in assay [1] (Example 3, text: Org OD14 (0.15 mg dose per Table IV), versus placebo 0.054) is given as 144%. Further, the uterus weight in assay [1] (Example 3, text: Org OD14 (0.15 mg dose per Table IV), placebo 0.054) was 0.132 grams per 100 grams body weigh. For the same molecule, the “Cholesterol level in aortic arch” value stood at 52 ± 9 nmol/mg protein in assay [2] (setting [3]), 61 ± 11 nmol/mg protein in assay [2] (setting [4]), 297 ± 67 nmol/mg protein in assay [2] (setting [5]) and 97 ± 23 nmol/mg protein in assay [2] (setting [6]). In addition, the “cholesterol accumulation in the aortic arch (in words)” value in assay [2] (Example 2: Org OD14 2 and 6 mg, E2 4 mg orally daily) was “completely prevented cholesterol accumulation”.
